Assay results published in patent publication US10899758B2, “Inhibitors of the menin-MLL interaction” (Vitae Pharmaceuticals, LLC, priority 2016, dated 2021).

Each molecule was assayed against T1, menin/MLL binding (biotinylated wild-type or mutated menin and MLL-AF9 fusion protein) (Homo sapiens, UniProt O00255) (assay: Assay 1 (Binding Assay): AlphaLISA menin/MLL binding). Settings: 5 nM biotinylated menin, MLL-AF9-FLAG lysate.
T1 construct: biotinylated (1) wild-type menin or (2) mutated menin (described in Nature (2012) Vol. 482, pp. 542-548); fused on or other part: Biotin attached chemically (Sulfo-NHS-Biotin); no fused second protein is printed for menin
T1 sequence (O00255 1-459 limits assumed): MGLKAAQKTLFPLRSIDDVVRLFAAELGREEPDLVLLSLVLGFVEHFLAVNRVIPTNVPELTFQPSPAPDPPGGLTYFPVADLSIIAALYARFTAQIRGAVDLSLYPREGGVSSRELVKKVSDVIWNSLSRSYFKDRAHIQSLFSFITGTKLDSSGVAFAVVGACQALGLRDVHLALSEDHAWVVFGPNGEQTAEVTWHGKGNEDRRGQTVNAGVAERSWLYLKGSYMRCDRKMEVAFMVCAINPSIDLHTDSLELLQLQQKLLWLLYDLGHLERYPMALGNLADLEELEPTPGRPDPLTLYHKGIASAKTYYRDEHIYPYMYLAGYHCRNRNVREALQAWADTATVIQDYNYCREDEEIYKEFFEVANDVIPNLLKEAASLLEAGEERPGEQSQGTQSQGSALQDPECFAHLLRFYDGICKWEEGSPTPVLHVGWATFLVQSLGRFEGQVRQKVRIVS
Description: Potencies of inhibitor compounds against menin/MLL binding were assessed by AlphaLISA assay using biotinylated (1) wild-type menin or (2) mutated menin (described in Nature (2012) Vol. 482, pp. 542-548) and MLL-AF9 fusion protein bearing a FLAG epitope at its C-terminus. Menin proteins were expressed in E. coli and covalently modified with biotin using EZ-Link™ Sulfo-NHS-Biotin (ThermoFisher Cat. No. 21217) according to manufacturer's protocol. MLL1-1,396 fused to AF91-92 and the C-terminal FLAG peptide was expressed in HEK293 cells and used as a lysate cleared at 21,000×g for 10 min.
Compounds (2 μL of solutions in DMSO) were dispensed in white 96-well half-area plates (Corning Cat. No. 3693) and incubated for 30 min at RT with 5 nM biotinylated menin and appropriate amount of MLL-AF9-FLAG lysate in 40 μL of 50 mM Tris-HCl buffer pH 7.4 containing 5% (v/v) DMSO, 50 mM NaCl, 0.01% (w/v) bovine serum albumin (BSA) and 1 mM DTT. To this incubation mixture, 40 μl of AlphaLISA anti-FLAG acceptor (PerkinElmer Cat. No. AL112C) and streptavidin donor (PerkinElmer Cat. No. 6760002) beads (10 μg/mL each) was added and incubation continued at RT for 60 min. Alpha (amplified luminescent proximity homogeneous assay) signal was measured on an Envision multi-label plate reader at the end of the incubation. All steps were conducted under dim fluorescent light.
These percent inhibition values were regressed against compound concentrations in the assay using four parameter logit non-linear curve fitting (XLFit, IDBS). The IC50 values were derived from the curve fitting as inflection points on the dose-response curves and are set out in Table 14 below.

SMILES | IC50 [nM]
CC(C)N(C)C(=O)c1cc(F)ccc1-n1cc(C2CCC3(CC2)OCCO3)c2ccncc21 [Int. 17A, 2-(3-(1,4-dioxaspiro[4.5]decan-8-yl)-1H-pyrrolo[2,3-c]pyridin-1-yl)-5-fluoro-N-isopropyl-N-methylbenzamide] | ≥ 1000
CC(C)N(C)C(=O)c1cc(F)ccc1-n1cc([C@H]2CC[C@H](NC(=O)c3ccccc3)CC2)c2ccncc21 [Example 129, 2-(3-(trans-4-benzamidocyclohexyl)-1H-pyrrolo[2,3-c]pyridine-1-yl)-5-fluoro-N-isopropyl-N-methylbenzamide] | ≥ 1000
CC(C)N(C)C(=O)c1cc(F)ccc1-n1cc(C2CCN(C(=O)Cc3ccccc3)CC2)c2ccncc21 [Example 133, 5-fluoro-N-isopropyl-N-methyl-2-(3-(1-(2-phenylacetyl)piperidin-4-yl)-1H-pyrrolo[2,3-c]pyridin-1-yl)benzamide] | 100 to 1000
CC(C)N(C)C(=O)c1cc(F)ccc1-n1cc([C@H]2CC[C@@H](N3CCOCC3)CC2)c2ccncc21 [Example 118, 5-fluoro-N-isopropyl-N-methyl-2-(3-(cis-4-morpholinocyclohexyl)-1H-pyrrolo[2,3-c]pyridin-1-yl)benzamide] | < 100
Fc1ccc(CN2CCC(c3cn(-c4ccc(F)cc4OCC4CC4)c4cnccc34)CC2)cc1 [Example 35, 1-(2-(cyclopropylmethoxy)-4-fluorophenyl)-3-(1-(4-fluorobenzyl)piperidin-4-yl)-1H-pyrrolo[2,3-c]pyridine] | < 100
O=c1[nH]c2ccc(CN3CCC(c4cn(-c5ccccc5)c5cncnc45)CC3)cc2[nH]1 [Example 73, 5-((4-(5-phenyl-5H-pyrrolo[3,2-d]pyrimidin-7-yl)piperidin-1-yl)methyl)-1H-benzo[d]imidazol-2(3H)-one] | ≥ 1000
Cc1c(CN2CCC(c3cn(-c4ccc(F)cc4C(=O)N(C)C)c4cncnc34)CC2)ccc2[nH]c(C#N)cc12 [Example 64, 2-(7-(1-((2-cyano-4-methyl-1H-indol-5-yl)methyl)piperidin-4-yl)-5H-pyrrolo[3,2-d]pyrimidin-5-yl)-5-fluoro-N,N-dimethylbenzamide] | < 100
CC(C)N(C)C(=O)c1cc(F)ccc1-n1cc([C@H]2CC[C@@H](N3CCC(C(=O)O)CC3)CC2)c2ccncc21 [Example 120, 1-(cis-4-(1-(4-fluoro-2-(isopropyl(methyl)carbamoyl)phenyl)-1H-pyrrolo[2,3-c]pyridin-3-yl)cyclohexyl)piperidine-4-carboxylic acid] | 100 to 1000
CC(C)N(C)C(=O)c1cc(F)ccc1-n1cc(C2CCC(Oc3ccccc3)CC2)c2ccncc21 (stereo not shown) [Example 59, 5-fluoro-N-isopropyl-N-methyl-2-(3-(4-phenoxycyclohexyl)-1H-pyrrolo[2,3-c]pyridin-1-yl)benzamide] | 100 to 1000
CC(C)N(C)C(=O)c1cc(F)ccc1-n1cc([C@H]2CC[C@H](N3CCC(C(=O)O)CC3)CC2)c2ccncc21 [Example 119, 1-(trans-4-(1-(4-fluoro-2-(isopropyl(methyl)carbamoyl)phenyl)-1H-pyrrolo[2,3-c]pyridin-3-yl)cyclohexyl)piperidine-4-carboxylic acid] | 100 to 1000
CC(C)N(C)C(=O)c1cc(F)ccc1-n1cc([C@H]2CC[C@@H](N3CC[C@H](CO)C3)CC2)c2ccncc21 [Example 105, 5-fluoro-2-(3-(cis-4-((S)-3-(hydroxymethyl)pyrrolidin-1-yl)cyclohexyl)-1H-pyrrolo[2,3-c]pyridin-1-yl)-N-isopropyl-N-methylbenzamide] | 100 to 1000
CC(C)N(C)C(=O)c1cc(F)ccc1-n1c(=O)n(C2CCN(Cc3ccc(F)cc3)CC2)c2ccncc21 [Example 83, 5-fluoro-2-(1-(1-(4-fluorobenzyl)piperidin-4-yl)-2-oxo-1,2-dihydro-3H-imidazo[4,5-c]pyridin-3-yl)-N-isopropyl-N-methylbenzamide] | 100 to 1000
CC(C)N(C(=O)c1cc(F)ccc1-n1cc(C2CCC(N3CCC4(CC(NS(C)(=O)=O)C4)C3)CC2)c2ccncc21)C(C)C (single isomer, unassigned) [Example 139, 5-fluoro-N,N-diisopropyl-2-(3-(4-(2-(methylsulfonamido)-6-azaspiro[3.4]octan-6-yl)cyclohexyl)-1H-pyrrolo[2,3-c]pyridin-1-yl)benzamide] | < 100
CC(C)N(C)C(=O)c1cc(F)ccc1-n1c(=S)n(C2CCCN(Cc3ccc4[nH]c(=O)[nH]c4c3)C2)c2ccncc21 (stereo not shown) [Example 135, 5-fluoro-N-isopropyl-N-methyl-2-(1-(1-((2-oxo-2,3-dihydro-1H-benzo[d]imidazol-5-yl)methyl)piperidin-3-yl)-2-thioxo-1,2-dihydro-3H-imidazo[4,5-c]pyridin-3-yl)benzamide] | 100 to 1000
CC(C)N(C)C(=O)c1cc(F)ccc1-n1cc(C2CCN(C)CC2)c2ccncc21 [Example 17, 5-fluoro-N-isopropyl-N-methyl-2-(3-(1-methylpiperidin-4-yl)-1H-pyrrolo[2,3-c]pyridin-1-yl)benzamide] | 100 to 1000
CC(C)N(C)C(=O)c1cc(F)ccc1-n1cc(C2CCCN(C(=O)OC(C)(C)C)C2)c2ccncc21 (stereo not shown) [Int. 2, tert-butyl 3-(1-(4-fluoro-2-(isopropyl(methyl)carbamoyl)phenyl)-1H-pyrrolo[2,3-c]pyridin-3-yl)piperidine-1-carboxylate] | ≥ 1000
CC(C)N(C)C(=O)c1cc(F)ccc1-n1cc([C@H]2CC[C@@H](N3CCC[C@@H]3CO)CC2)c2ccncc21 [Example 101, 5-fluoro-2-(3-(cis-4-((R)-2-(hydroxymethyl)pyrrolidin-1-yl)cyclohexyl)-1H-pyrrolo [2,3-c]pyridin-1-yl)-N-isopropyl-N-methylbenzamide] | < 100
CC(C)N(C)C(=O)c1cc(F)ccc1-n1cc([C@H]2CC[C@H](N3CCN(CCO)CC3)CC2)c2ccncc21 [Example 114, 5-fluoro-2-(3-(trans-4-(4-(2-hydroxyethyl)piperazin-1-yl)cyclohexyl)-1H-pyrrolo[2,3-c]pyridin-1-yl)-N-isopropyl-N-methylbenzamide] | < 100
Fc1ccc(-n2cc(C3CCN(Cc4ccc5[nH]ccc5c4)CC3)c3ncncc32)cc1 [Example 69, 7-(1-((1H-indol-5-yl)methyl)piperidin-4-yl)-5-(4-fluorophenyl)-5H-pyrrolo[3,2-d]pyrimidine] | 100 to 1000
Cc1c(CN2CCC(c3cn(-c4ccc(Cl)cc4)c4cnccc34)CC2)ccc2[nH]c(C#N)cc12 [Example 38, 5-((4-(1-(4-chlorophenyl)-1H-pyrrolo[2,3-c]pyridin-3-yl)piperidin-1-yl)methyl)-4-methyl-1H-indole-2-carbonitrile] | 100 to 1000
CC(C)N(C)C(=O)c1cc(F)ccc1-n1cc(-c2ccc3c(c2)CCN(C)C3)c2ccncc21 [Example 52, 5-fluoro-N-isopropyl-N-methyl-2-(3-(2-methyl-1,2,3,4-tetrahydroisoquinolin-6-yl)-1H-pyrrolo[2,3-c]pyridin-1-yl)benzamide] | 100 to 1000
CC(C)N(C)C(=O)c1cc(F)ccc1-n1cc(C2CCCNCC2)c2ccncc21 (stereo not shown) [Example 41A, 2-(3-(azepan-4-yl)-1H-pyrrolo[2,3-c]pyridin-1-yl)-5-fluoro-N-isopropyl-N-methylbenzamide] | 100 to 1000
CC(C)N(C)C(=O)c1cc(F)ccc1-n1cc([C@H]2CC[C@@H](N3CC(CO)C3)CC2)c2ccncc21 [Example 99, 5-fluoro-2-(3-(cis-4-(3-(hydroxymethyl)azetidin-1-yl)cyclohexyl)-1H-pyrrolo[2,3-c]pyridin-1-yl)-N-isopropyl-N-methylbenzamide] | 100 to 1000
CC(C)N(C)C(=O)c1cc(F)ccc1-n1cc([C@H]2CC[C@@H](N3CCN(CCO)CC3)CC2)c2ccncc21 [Example 115, 5-fluoro-2-(3-(cis-4-(4-(2-hydroxyethyl)piperazin-1-yl)cyclohexyl)-1H-pyrrolo[2,3-c]pyridin-1-yl)-N-isopropyl-N-methylbenzamide] | 100 to 1000
CC(C)N(C)C(=O)c1cc(F)ccc1-n1cc(C2CCN(C(=O)OC(C)(C)C)CC2)c2ccncc21 [Int. 1, tert-butyl 4-(1-(4-fluoro-2-(isopropyl(methyl)carbamoyl)phenyl)-1H-pyrrolo[2,3-c]pyridin-3-yl)piperidine-1-carboxylate] | 100 to 1000
